Experimental findings from PubChem BioAssay AID206 (DTP/NCI, 2004) are described below.

Each structure is given as a SMILES string. “And” between values parts separate entries of the source, which are not always exact repeats. Identical values can stand only once. Records with an inconclusive call do not appear.

The test system of the experiment is nude mice, HT29 intrarenal xenograft, tumor weight T/C. In words: NCI In Vivo Anticancer Drug Screen. Data for tumor model HT29;CX-1 Human Adenocarcinoma (MER+) (intrarenal inoculation) in NU/NU Swiss (nude) mice. Conditions: endpoint: mean tumor weight change, higher = larger tumour. Put shortly:
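Mice with transplanted tumors are dosed with compound while controls get vehicle only. Survival or tumor burden is then assessed per group, and the treated value is expressed relative to control.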

Setting [1] is: dose: 400.0 mg/kg/injection, schedule: Q01DX010 (sc), vehicle: saline.
Where [2] appears, read: dose: 75.0 mg/kg/injection, schedule: Q04DX004 (sc), vehicle: saline with Tween-80.
The mark [3] stands for this setting: dose: 150.0 mg/kg/injection, schedule: Q04DX004 (sc), vehicle: saline with Tween-80.
Where [4] appears, read: dose: 300.0 mg/kg/injection, schedule: Q04DX004 (sc), vehicle: saline with Tween-80.
Setting [5] is: dose: 100.0 mg/kg/injection, schedule: Q01DX010 (sc), vehicle: saline with Tween-80.
The mark [6] stands for this setting: dose: 100.0 mg/kg/injection, schedule: Q01DX010 (sc), vehicle: Klucel (hydroxypropylcellulose) (HPC).

For the molecule `CCC(=O)N(C)[C@@H](C)C(=O)O[C@H]1CC(=O)N(C)c2cc(cc(OC)c2Cl)C/C(C)=C/C=C[C@@H](OC)[C@@]2(O)C[C@H](OC(=O)N2)[C@@H](C)[C@@H]2O[C@@]12C`, the T/C (dose: 0.03 mg/kg/injection, schedule: Q01DX010 (sc), vehicle: saline + alcohol) was 171 % of control; the T/C (dose: 0.06 mg/kg/injection, schedule: Q01DX010 (sc), vehicle: saline + alcohol) is 65 % of control; the T/C (dose: 0.07 mg/kg/injection, schedule: Q01DX010 (sc), vehicle: saline + alcohol) was 120 % of control; the T/C (dose: 0.12 mg/kg/injection, schedule: Q01DX010 (sc), vehicle: saline + alcohol) is 34 % of control; the T/C (dose: 0.13 mg/kg/injection, schedule: Q01DX010 (sc), vehicle: saline + alcohol) was 69 % of control; the T/C (dose: 0.25 mg/kg/injection, schedule: Q01DX010 (sc), vehicle: saline + alcohol) is 2 % of control and 18 % of control.

Turning to `Nc1ncnc2c1ncn2C1OC(COP(=O)(O)O)C(O)C1O` (centres undefined), the T/C (dose: 100.0 mg/kg/injection, schedule: Q01DX010 (sc), vehicle: saline) was 152 % of control; the T/C (dose: 200.0 mg/kg/injection, schedule: Q01DX010 (sc), vehicle: saline) was 198 % of control; the T/C under setting [1] is 260 % of control; the T/C (dose: 800.0 mg/kg/injection, schedule: Q01DX010 (sc), vehicle: saline) was 67 % of control.

Take `CC(C)[C@]12O[C@H]1[C@@H]1O[C@]13[C@]1(O[C@H]1C[C@H]1C4=C(C(=O)OC4)[C@@H](O)C[C@@]13C)[C@@H]2O`: the T/C (dose: 0.1 mg/kg/injection, schedule: Q01DX010 (sc), vehicle: saline + alcohol) is 63 % of control and the T/C (dose: 0.2 mg/kg/injection, schedule: Q01DX010 (sc), vehicle: saline + alcohol) is 77 % of control.

Regarding `CN(C)P(=O)(Oc1ccccc1)N(C)C`, the T/C by setting is: under setting [2], 183 % of control; under setting [3], 122 % of control; under setting [4], 62 % of control; (dose: 600.0 mg/kg/injection, schedule: Q04DX004 (sc), vehicle: saline with Tween-80) 40 % of control.

In the case of `CN(C)C=O`, the T/C is, setting by setting: under setting [1], 186 % of control; (dose: 3200.0 mg/kg/injection, schedule: Q01DX010 (sc), vehicle: saline) 48 % of control and 49 % of control.

Regarding `CSc1nc(=O)[nH]nc1SCc1ccccc1`, the T/C by setting is: (dose: 200.0 mg/kg/injection, schedule: Q04DX004 (sc), vehicle: Klucel (hydroxypropylcellulose) (HPC)) 76 % of control; (dose: 400.0 mg/kg/injection, schedule: Q04DX004 (sc), vehicle: Klucel (hydroxypropylcellulose) (HPC)) 56 % of control; (dose: 800.0 mg/kg/injection, schedule: Q04DX004 (sc), vehicle: Klucel (hydroxypropylcellulose) (HPC)) 90 % of control.

Regarding `c1cnc2ncncc2n1`, the T/C is 62 % of control (dose: 25.0 mg/kg/injection, schedule: Q01DX010 (sc), vehicle: saline with Tween-80); 70 % of control (dose: 50.0 mg/kg/injection, schedule: Q01DX010 (sc), vehicle: saline with Tween-80); 28 % of control under setting [5].

`Oc1c(Cl)cc(Cl)cc1C1N2CCCCC2C2c3cccn3-c3ccccc3N21` (centres undefined): the T/C (dose: 1200.0 mg/kg/injection, schedule: Q04DX004 (sc), vehicle: Klucel (hydroxypropylcellulose) (HPC)) is 111 % of control.

In the case of `N#CCCSC(=S)C1CCCC1=N` (centres undefined), the T/C was 104 % of control (dose: 225.0 mg/kg/injection, schedule: Q04DX004 (sc), vehicle: saline with Tween-80); 106 % of control (dose: 450.0 mg/kg/injection, schedule: Q04DX004 (sc), vehicle: saline with Tween-80); 114 % of control (dose: 900.0 mg/kg/injection, schedule: Q04DX004 (sc), vehicle: saline with Tween-80); 103 % of control (dose: 1800.0 mg/kg/injection, schedule: Q04DX004 (sc), vehicle: saline with Tween-80).

On to `CCCCOC(=O)/C=C(\Br)C(=O)OCCCC`, for which the T/C reads like this: (dose: 250.0 mg/kg/injection, schedule: Q04DX004 (sc), vehicle: saline with Tween-80) 69 % of control; (dose: 500.0 mg/kg/injection, schedule: Q04DX004 (sc), vehicle: saline with Tween-80) 43 % of control.

As to `COc1cc([C@@H]2c3cc4c(c(O)c3C[C@H]3COC(=O)[C@@H]32)OCO4)cc(OC)c1O`, the T/C reads like this: (dose: 1.0 mg/kg/injection, schedule: Q01DX010 (sc), vehicle: saline) 92 % of control; (dose: 2.0 mg/kg/injection, schedule: Q01DX010 (sc), vehicle: saline) 75 % of control; (dose: 4.0 mg/kg/injection, schedule: Q01DX010 (sc), vehicle: saline) 106 % of control.

Turning to `COc1cc2c(c(OC)c1OC)-c1c(cc3c(c1OC)OCO3)CC(C)C(C)(O)C2OC(=O)c1ccccc1` (centres undefined), the T/C (dose: 75.0 mg/kg/injection, schedule: Q04DX004 (sc), vehicle: saline + alcohol) was 63 % of control.

In the case of `COC1=C(OC)C(=O)C(C/C=C(\C)CC/C=C(\C)CC/C=C(\C)CC/C=C(\C)CC/C=C(\C)CC/C=C(\C)CC/C=C(\C)CC/C=C(\C)CC/C=C(\C)CCC=C(C)C)=C(C)C1=O`, the T/C under setting [5] was 113 % of control; the T/C (dose: 200.0 mg/kg/injection, schedule: Q01DX010 (sc), vehicle: saline with Tween-80) was 98 % of control; the T/C (dose: 400.0 mg/kg/injection, schedule: Q01DX010 (sc), vehicle: saline with Tween-80) was 105 % of control; the T/C (dose: 800.0 mg/kg/injection, schedule: Q01DX010 (sc), vehicle: saline with Tween-80) was 46 % of control.

For `CC[C@@H](C)[C@@H]1NC(=O)C(NC(=O)C(CC(C)C)N(C)C(=O)C2CCCN2C(=O)C(C)O)C(C)OC(=O)C(Cc2ccc(OC)cc2)N(C)C(=O)C2CCCN2C(=O)C(CC(C)C)NC(=O)C(C)C(=O)C(C(C)C)OC(=O)C[C@H]1O` (some centres undefined), the T/C reads like this: (dose: 225.0 micrograms/kg/injection, schedule: Q04DX004 (sc), vehicle: distilled water + alcohol) 105 % of control; (dose: 450.0 micrograms/kg/injection, schedule: Q04DX004 (sc), vehicle: distilled water + alcohol) 106 % of control; (dose: 900.0 micrograms/kg/injection, schedule: Q04DX004 (sc), vehicle: distilled water + alcohol) 78 % of control; (dose: 1800.0 micrograms/kg/injection, schedule: Q04DX004 (sc), vehicle: distilled water + alcohol) 29 % of control.

As to `CN(C)/N=N/c1nc[nH]c1C(N)=O`, the T/C runs as follows: under setting [6], 90 % of control and 109 % of control; (dose: 400.0 mg/kg/injection, schedule: Q01DX010 (sc), vehicle: Klucel (hydroxypropylcellulose) (HPC)) 77 % of control.

On to `NC(=O)c1ncn(C2OC(CO)C(O)C2O)n1` (centres undefined), for which the T/C runs as follows: (dose: 225.0 mg/kg/injection, schedule: Q04DX004 (sc), vehicle: saline) 93 % of control; (dose: 450.0 mg/kg/injection, schedule: Q04DX004 (sc), vehicle: saline) 75 % of control; (dose: 900.0 mg/kg/injection, schedule: Q04DX004 (sc), vehicle: saline) 61 % of control.

Turning to `COC1OC(CO)C(O)C(NC(=O)N(C)N=O)C1O` (centres undefined), the T/C is, setting by setting: (dose: 225.0 mg/kg/injection, schedule: Q04DX004 (sc), vehicle: suspension in saline) 104 % of control; (dose: 450.0 mg/kg/injection, schedule: Q04DX004 (sc), vehicle: suspension in saline) 95 % of control; (dose: 900.0 mg/kg/injection, schedule: Q04DX004 (sc), vehicle: suspension in saline) 33 % of control.

In the case of `Cc1cc(N(CCOS(C)(=O)=O)CCOS(C)(=O)=O)ccc1C=Nc1ccc(-c2nc(Cc3ccccc3)sc2C)cc1`, the T/C runs as follows: (dose: 50.0 mg/kg/injection, schedule: Q01DX010 (sc), vehicle: Klucel (hydroxypropylcellulose) (HPC)) 92 % of control; under setting [6], 80 % of control; (dose: 200.0 mg/kg/injection, schedule: Q01DX010 (sc), vehicle: Klucel (hydroxypropylcellulose) (HPC)) 117 % of control.

On to `CC1=CC2c3cccc4[nH]cc(c34)CC2N(C)C1` (centres undefined), for which the T/C by setting is: (dose: 12.5 mg/kg/injection, schedule: Q04DX004 (sc), vehicle: suspension in saline) 85 % of control; (dose: 25.0 mg/kg/injection, schedule: Q04DX004 (sc), vehicle: suspension in saline) 61 % of control; (dose: 50.0 mg/kg/injection, schedule: Q04DX004 (sc), vehicle: suspension in saline) 90 % of control.

As for `Cc1cc2c(C(C)C)c(O)c(O)c(C=O)c2c(O)c1-c1c(C)cc2c(C(C)C)c(O)c(O)c(C=O)c2c1O`, the T/C (dose: 37.5 mg/kg/injection, schedule: Q04DX004 (sc), vehicle: saline with Tween-80) was 100 % of control; the T/C under setting [2] was 71 % of control; the T/C under setting [3] is 64 % of control; the T/C under setting [4] is 46 % of control.

`CC1(O)CC23CC(O)C4(O)C(CC(O)C4(C)C)C(C)(O)C2CCC1C3O` (centres undefined): the T/C is 46 % of control (dose: 0.25 mg/kg/injection, schedule: Q04DX004 (sc), vehicle: Klucel (hydroxypropylcellulose) (HPC)); 37 % of control (dose: 0.5 mg/kg/injection, schedule: Q04DX004 (sc), vehicle: Klucel (hydroxypropylcellulose) (HPC)); 82 % of control (dose: 1.0 mg/kg/injection, schedule: Q04DX004 (sc), vehicle: Klucel (hydroxypropylcellulose) (HPC)).
